Experiments:
[1] = tested on: mutant pri-miR-27a; assay: RT-qPCR of miR-27a biogenesis in MCF-10a cells transfected with mutant pri-miR-27a; assay type: cell-based, human; conditions: mutant plasmid, 48 h
Text: To gauge the specificity of 9 for pri-miR-27a, inhibition of biogenesis was first studied in a cellular model of healthy breast epithelium, MCF-10a, in which miR-27a expression is not detectable (Ct>31). MCF-10a cells were transfected with a plasmid encoding WT pri-miR-27a or mutant in which the two 5′GAG/3′CCC internal loops at and nearby the Drosha processing site were mutated to base pairs. In the absence of compound treatment, both primary miRNA transcripts were processed similarly, generating mature miR-27a, as determined by RT-qPCR.
(§1) Cell lines. Compounds were tested in MDA-MB-231 TNBC cells (HTB-26, ATCC), LNCaP metastatic prostate cancer cells (gifted from Junli Luo lab), MCF-7 (HTB-22, ATCC) breast cancer cells, HeLa cervical adenocarcinoma cells (CCL-2, ATCC), and MCF-10a, a model of healthy breast epithelial cells (CRL-10317, ATCC).
Cell culture and compound treatment. All cells were maintained at 37° C. with 5% CO2. […]
(§2) Analysis of mRNA abundance: Each cell line was grown as a monolayer in 12- or 24-well plates and treated as described in “Cell culture and compound treatment”. […] Relative abundance of mature miRNAs was calculated by normalizing to RNU6, and relative abundance for pri-miRNAs and mRNAs was calculated by normalizing to 18S ribosomal RNA, using the AAC, method. […]

[2] = tested on: pri-miR-27a; assay: RT-qPCR of pri- and mature miR-27a in HeLa cells; assay type: cell-based, human
Protocol: as §1
Cell culture and compound treatment. All cells were maintained at 37° C. with 5% CO2. MDA-MB-231 and LNCaP cells were cultured in RPMI 1640 medium with L-glutamine & 25 mM HEPES (Corning) supplemented with 10% (v/v) fetal bovine serum (FBS; Sigma) and 1× (v/v) Antibiotic-Antimycotic solution (Corning). MCF-7 and HeLa cells were cultured in DMEM medium with 4.5 g/L glucose (Corning), supplemented with 10% FBS, 1× (v/v) Glutagro (Corning), and 1× (v/v) Antibiotic-Antimycotic solution. […]
as §2

C#CCN(CC(N)=O)C(=O)C[C@H](Cc1c[nH]c2ccccc12)NC(=O)[C@@H]1C[C@H](NC(=O)Cn2c(=O)[nH]c3ccccc3c2=O)CN1 [Compound 9]
inhibition of biogenesis of mutated pri-miR-27a [1]: did not inhibit biogenesis | dose with significant inhibition of miR-27a processing [2]: 100 nM

From patent US20250051762A1, “PLATFORM USING DNA-ENCODED SMALL MOLECULE LIBRARIES AND RNA SELECTION TO DESIGN SMALL MOLECULES THAT TARGET RNA” (University of Florida Research Foundation, Incorporated, priority 2021, published 2025)
